Data on 2 compounds can be found in PMC4987125 (Molecular microbiology, 2015).

Where no end group is shown, it is not given here.

Data set [1] deals with Rgg2/3 quorum-sensing pathway (Pshp3-lux). Briefly: Luminescence transcriptional reporter assay, Pshp3-lux. It is filed as cell-based, Streptococcus pyogenes. The settings on record: WT NZ131 Pshp3-lux, CDM with 1% mannose and 0.05% glucose; 500 nM RI-10, 500 nM L10A or 10 mM MgSO4. (Reporter assays use an easily measured gene product as a stand-in for the process of interest.)

In data set [2] the test system is PepO in intact cells, lysed cells or conditioned supernatants. Briefly: Activity-based screening for PepO localization. It is filed as in vitro ADME, Streptococcus pyogenes. The note with it: 50 nM sSHP2-C8, intact cells, lysed cells or conditioned supernatants of ΔoppD shp2GGG shp3GGG pepO+ and pepO- cultures, 30 °C, 4 hours; read-out ΔpepO shp2GGGshp3GGG Pshp3-lux reporter.

With `O=S(=O)([O-])[O-].[Mg+2]` [Mg^2+, MgSO4], the “effect on Pshp3-lux induction in mannose-induced wild-type reporter” value in data set [1] is “unlike cultures treated with the inactive L10A variant or Mg^2+”.
As for DILIIVGG [sSHP2-C8], the “PepO-dependent degradation of SHP in cellular fractions” value in data set [2] is listed as “found only in the cytoplasmic fraction”.
